Among the data in patent US9216981B2, “Purinylpyridinylamino-2,4-difluorophenyl sulfonamide derivative, pharmaceutically acceptable salt thereof, preparation method thereof, and pharmaceutical composition with inhibitory activity against Raf kinase, containing same as active ingredient” (Medpacto, Inc., priority 2010, dated 2015) are IC50 values, retold here.

SMILES strings stand for the structures. A value given as a limit tells only on which side of the number the result lay.

In one assay the target is B-Raf (Homo sapiens (Human), UniProt P15056). The assay is described as follows: B-Raf kinase activity (B-Raf/MEK1/MAPK2 cascade, MBP phosphorylation, [γ-32P]ATP). As to conditions: activated B-Raf, inactivated MEK1, inactivated MAPK2, 30° C., 30 minutes, read-out: B-Raf Enzyme Activity. Format: biochemical. How it is done:
To check the B-Raf kinase inhibitory activity of the compounds of the present invention, the following experiments were conducted.
20 μl of diluting solvent (20 mM MOPS, pH 7.2, 25 mM β-glycerol phosphate, 5 mM EGTA, 1 mM sodium orthovanadate, 1 mM dithiothreitol) and 10 μl of Mg/ATP mixed solution (500 μM ATP, 75 mM magnesium chloride) were added into a centrifuge tube, the derivative compound of Formula 1 was added or the compounds of the Examples were not added as a control group, and then 1 ng of activated B-Raf, 0.4 ng of inactivated MEK1, and 1 μg of inactivated MAPK2 were added. The solutions in the tube were collected on the bottom via centrifugation and were reacted at 30° C. for 30 minutes. After taking 4 μl of the mixed solution, the test proceeded to the next step.
(2) Phosphorylation of Matrix Protein MBP by MAPK2
10 μl of diluting solvent, 20 μg of MBP used as a matrix, and 10 μl of diluted [γ-32P]ATP (1 μCi/μL) were added into the 4 μl of the mixed solution obtained from (1). The solutions in the tube were collected on the bottom via centrifugation and were reacted at 30° C. for 30 minutes. And 25 μl of the reacted solution was put carefully on the center of a filter paper (2 cm×2 cm P81) for 30 seconds. Afterwards, the filter paper was cleaned with 0.75% phosphoric acid for 10 minutes three times and with acetone for 5 minutes one time. The filter paper was then moved to a scintillation vial and 5 ml of scintillation cocktail was added thereto. The inhibition rate (IC50) over B-Raf activity was measured by reading radioactivity through a scintillation counter while comparing to the control group.

Another assay concerns A375P cell line. The assay is described as follows: B-Raf cell activity inhibition (A375P growth inhibition, MTT assay). The class given is cell-based. As to conditions: A375P human melanoma, V600E mutant of B-Raf, 72 hours. The method, then:
To check the B-Raf cell activity inhibitory capability of the compounds of the present invention, the following experiments were conducted in A375P cell line (ATCC). […] A375 cell was maintained in DMEM supplemented with 10% fetal bovine serum, glutamine (2 mM), penicillin (100 U/mL), and streptomycin (100 μg/mL). The cell was maintained at 37° C., and in 5% CO2 and 100% humidity. To conduct the growth inhibition test, the cell was plated by using a white 384-well microplate, with 1000 cells/20 μl plated per 1 well. After 24 hours, 5 μl of 5× stock solution of drug was added. All the drugs were initially prepared with 200× stock solution in DMSO, and the final concentration of DMSO was 0.5%. The cell was incubated at 37° C. for 72 hours. For MTT assay, ‘CellTiter 96 (R) Non-Radioactive Cell Proliferation Assay (G4100)’ kit by Promega Corp. was used. 15 μl of dye solution of the Promega kit was put into each well and was cultured in the incubator for 4 hours. And 100 μl of each Solubilization/Stop Solution substance of the kit was added and fixed in the incubator for 24 hours again. And then, absorbance was measured by using a 96-well plate reader with 570 nm of absorbance.
A general note: Tetrazolium assays rely on reduction of a dye to a coloured formazan, in cell work by metabolically active cells.

B-Raf, sequence (P15056 whole entry): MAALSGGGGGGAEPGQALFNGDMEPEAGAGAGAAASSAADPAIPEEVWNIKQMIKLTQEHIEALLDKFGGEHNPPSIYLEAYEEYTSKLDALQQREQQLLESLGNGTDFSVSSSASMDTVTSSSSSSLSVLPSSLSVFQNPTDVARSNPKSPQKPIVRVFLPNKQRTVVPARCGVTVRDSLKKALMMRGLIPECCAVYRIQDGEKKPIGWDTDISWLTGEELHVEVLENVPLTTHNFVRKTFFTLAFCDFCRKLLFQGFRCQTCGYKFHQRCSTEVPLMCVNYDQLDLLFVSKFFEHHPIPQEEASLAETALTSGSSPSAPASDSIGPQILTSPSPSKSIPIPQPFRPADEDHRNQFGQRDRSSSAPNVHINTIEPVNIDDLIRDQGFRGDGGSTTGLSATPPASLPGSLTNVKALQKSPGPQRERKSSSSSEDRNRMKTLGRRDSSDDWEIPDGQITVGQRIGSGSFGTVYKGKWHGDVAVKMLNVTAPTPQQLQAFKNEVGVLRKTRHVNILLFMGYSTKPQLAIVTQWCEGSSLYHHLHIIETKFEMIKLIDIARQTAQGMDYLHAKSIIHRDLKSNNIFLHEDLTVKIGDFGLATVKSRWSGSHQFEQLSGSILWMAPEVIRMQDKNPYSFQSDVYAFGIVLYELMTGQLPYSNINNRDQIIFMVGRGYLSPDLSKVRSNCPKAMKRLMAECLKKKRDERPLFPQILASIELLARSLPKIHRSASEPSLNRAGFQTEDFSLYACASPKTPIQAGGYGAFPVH

`CCCS(=O)(=O)Nc1ccc(F)c(Nc2ncccc2-c2ncnc3[nH]cnc23)c1F` [Example 5, N-(3-(3-(9H-purin-6-yl)pyridin-2-ylamino)-2,4-difluorophenyl)propan-1-sulfonamide]: the IC50 was 0.023 µM on B-Raf and 0.31 µM in the assay on A375P cell line.
For `Cc1cccc(Cl)c1S(=O)(=O)Nc1ccc(F)c(Nc2ncccc2-c2ncnc3[nH]cnc23)c1F` [Example 27, N-(3-(3-(9H-purin-6-yl)pyridin-2-ylamino)-2,4-difluorophenyl)-2-chloro-6-methylbenzenesulfonamide] the same measures were 0.08 µM and 0.76 µM.
For `Cn1ccc2cc(S(=O)(=O)Nc3ccc(F)c(Nc4ncccc4-c4ncnc5[nH]cnc45)c3F)ccc21` [Example 40, N-(3-(3-(9H-purin-6-yl)pyridin-2-ylamino)-2,4-difluorophenyl)-1-methyl-1H-indole-5-sulfonamide] the same measures were above 10 µM and above 15 µM.
In the case of `CC(C)S(=O)(=O)Nc1ccc(F)c(Nc2ncccc2-c2ncnc3[nH]cnc23)c1F` [Example 1, N-(3-(3-(9H-purin-6-yl)pyridin-2-ylamino)-2,4-difluorophenyl)propane-2-sulfonamide], the values for the IC50 at B-Raf and with A375P cell line were 0.017 µM and 0.12 µM, respectively.
With `Cc1cc(S(=O)(=O)Nc2ccc(F)c(Nc3ncccc3-c3ncnc4[nH]cnc34)c2F)c(C)o1` [Example 25, N-(3-(3-(9H-purin-6-yl)pyridin-2-ylamino)-2,4-difluorophenyl)-2,5-dimethylfuran-3-sulfonamide], the IC50 at B-Raf was determined as 0.015 µM; in the assay with A375P cell line it was 0.1 µM.
For `O=S(=O)(Nc1ccc(F)c(Nc2ncccc2-c2ncnc3[nH]cnc23)c1F)c1ccc(Cl)c(Cl)c1` [Example 6, N-(3-(3-(9H-purin-6-yl)pyridin-2-ylamino)-2,4-difluorophenyl)-3,4-dichlorobenzenesulfonamide] the same measures were 0.72 µM and 2.8 µM.
Regarding `O=S(=O)(Nc1ccc(F)c(Nc2ncccc2-c2ncnc3[nH]cnc23)c1F)c1ccc(F)cc1C(F)(F)F` [Example 13, N-(3-(3-(9H-purin-6-yl)pyridin-2-ylamino)-2,4-difluorophenyl)-4-fluoro-2-(trifluoromethyl)benzenesulfonamide], the figures for the IC50 at B-Raf and with A375P cell line were 0.42 µM and 0.15 µM, respectively.
For `Cc1nc2ccc(S(=O)(=O)Nc3ccc(F)c(Nc4ncccc4-c4ncnc5[nH]cnc45)c3F)cc2s1` [Example 39, N-(3-(3-(9H-purin-6-yl)pyridin-2-ylamino)-2,4-difluorophenyl)-2-methylbenzo[d]thiazole-6-sulfonamide] the same measures were 0.4 µM and 2.93 µM.
For `O=S(=O)(Nc1ccc(F)c(Nc2ncccc2-c2ncnc3[nH]cnc23)c1F)c1ccco1` [Example 15, N-(3-(3-(9H-purin-6-yl)pyridin-2-ylamino)-2,4-difluorophenyl)furan-2-sulfonamide] the same measures were 0.001 µM and 11 µM.
For `O=S(=O)(Nc1ccc(F)c(Nc2ncccc2-c2ncnc3[nH]cnc23)c1F)c1cc2ccccc2o1` [Example 7, N-(3-(3-(9H-purin-6-yl)pyridin-2-ylamino)-2,4-difluorophenyl)benzofuran-2-sulfonamide] the same measures were 0.832 µM and 4.3 µM.
On to `O=S(=O)(Nc1ccc(F)c(Nc2ncccc2-c2ncnc3[nH]cnc23)c1F)c1cccc(Cl)c1F` [Example 29, N-(3-(3-(9H-purin-6-yl)pyridin-2-ylamino)-2,4-difluorophenyl)-3-chloro-2-fluorobenzenesulfonamide], for which the IC50 at B-Raf was found to be 0.08 µM; in the assay on A375P cell line it was 0.72 µM.
The corresponding values for `O=S(=O)(Nc1ccc(F)c(Nc2ncccc2-c2ncnc3[nH]cnc23)c1F)c1ccccc1Cl` [Example 32, N-(3-(3-(9H-purin-6-yl)pyridin-2-ylamino)-2,4-difluorophenyl)-2-chloro benzenesulfonamide] are 0.03 µM and 0.44 µM.
For `O=S(=O)(Nc1ccc(F)c(Nc2ncccc2-c2ncnc3[nH]cnc23)c1F)c1ccccc1` [Example 35, N-(3-(3-(9H-purin-6-yl)pyridin-2-ylamino)-2,4-difluorophenyl)benzenesulfonamide], the IC50 at B-Raf was 0.02 µM; with A375P cell line, 0.16 µM.
The corresponding values for `O=S(=O)(Nc1ccc(F)c(Nc2ncccc2-c2ncnc3[nH]cnc23)c1F)c1cccc(Cl)c1` [Example 33, N-(3-(3-(9H-purin-6-yl)pyridin-2-ylamino)-2,4-difluorophenyl)-3-chloro benzenesulfonamide] are 0.08 µM and 0.77 µM.
The corresponding values for `O=S(=O)(Nc1ccc(F)c(Nc2ncccc2-c2ncnc3[nH]cnc23)c1F)C1CC1` [Example 19, N-(3-(3-(9H-purin-6-yl)pyridin-2-ylamino)-2,4-difluorophenyl)cyclopropansulfonamide] are 0.05 µM and 0.25 µM.
Turning to `Cn1ccc2cccc(S(=O)(=O)Nc3ccc(F)c(Nc4ncccc4-c4ncnc5[nH]cnc45)c3F)c21` [Example 42, N-(3-(3-(9H-purin-6-yl)pyridin-2-ylamino)-2,4-difluorophenyl)-1-methyl-1H-indole-7-sulfonamide], the IC50 at B-Raf is 0.8 µM; in the assay with A375P cell line, 5.87 µM.
`Cn1ccc2c(S(=O)(=O)Nc3ccc(F)c(Nc4ncccc4-c4ncnc5[nH]cnc45)c3F)cccc21` [Example 41, N-(3-(3-(9H-purin-6-yl)pyridin-2-ylamino)-2,4-difluorophenyl)-1-methyl-1H-indole-4-sulfonamide]: the results for the IC50 at B-Raf and with A375P cell line were 0.55 µM and 4.2 µM, respectively.
For `O=S(=O)(Nc1ccc(F)c(Nc2ncccc2-c2ncnc3[nH]cnc23)c1F)c1ccsc1` [Example 17, N-(3-(3-(9H-purin-6-yl)pyridin-2-ylamino)-2,4-difluorophenyl)thiophene-3-sulfonamide] the same measures were 0.007 µM and 0.04 µM.
Regarding `O=[N+]([O-])c1ccccc1CS(=O)(=O)Nc1ccc(F)c(Nc2ncccc2-c2ncnc3[nH]cnc23)c1F` [Example 9, N-(3-(3-(9H-purin-6-yl)pyridin-2-ylamino)-2,4-difluorophenyl)-1-(2-nitrophenyl)methansulfonamide], at B-Raf, the IC50 turned out to be 1.5 µM.
As for `O=S(=O)(Nc1ccc(F)c(Nc2ncccc2-c2ncnc3[nH]cnc23)c1F)C1CCCCC1` [Example 11, N-(3-(3-(9H-purin-6-yl)pyridin-2-ylamino)-2,4-difluorophenyl)cyclohexanesulfonamide], the IC50 at B-Raf came out at 0.206 µM; in the assay on A375P cell line it was 0.34 µM.
The compound `O=S(=O)(Nc1ccc(F)c(Nc2ncccc2-c2ncnc3[nH]cnc23)c1F)c1ccc(Cl)s1` [Example 44] yielded an IC50 in the assay on A375P cell line of 0.2 µM.
As for `Cc1ccc(S(=O)(=O)Nc2ccc(F)c(Nc3ncccc3-c3ncnc4[nH]cnc34)c2F)o1` [Example 23, N-(3-(3-(9H-purin-6-yl)pyridin-2-ylamino)-2,4-difluorophenyl)-5-methylfuran-2-sulfonamide], the IC50 came out at 0.015 µM on B-Raf and 0.06 µM in the assay with A375P cell line.
The corresponding values for `O=S(=O)(Nc1ccc(F)c(Nc2ncccc2-c2ncnc3[nH]cnc23)c1F)c1ccc(Cl)cc1F` [Example 8, N-(3-(3-(9H-purin-6-yl)pyridin-2-ylamino)-2,4-difluorophenyl)-4-chloro-2-fluorobenzenesulfonamide] are 0.0337 µM and 0.7 µM.
